Assay results: US20240132489A1, “AROMATIC HETEROCYCLIC COMPOUND, PHARMACEUTICAL COMPOSITION, AND USE THEREOF” (GT APEIRON THERAPEUTICS LIMITED, priority 2020, published 2024)
pIC50: −log10 of the molar value. Structures can show the parent of a compound that is named as a salt.

Columns and labels:
[1] = target: CDK7/cyclin H/MAT1 complex (Homo sapiens (Human), UniProt P50613); experiment: In vitro enzymatic inhibitory activity test, CDK7; assay type: biochemical; conditions: Caliper mobility shift, 180 min at 27° C.
Sequence of CDK7/cyclin H/MAT1 complex (P50613 whole entry, species assumed): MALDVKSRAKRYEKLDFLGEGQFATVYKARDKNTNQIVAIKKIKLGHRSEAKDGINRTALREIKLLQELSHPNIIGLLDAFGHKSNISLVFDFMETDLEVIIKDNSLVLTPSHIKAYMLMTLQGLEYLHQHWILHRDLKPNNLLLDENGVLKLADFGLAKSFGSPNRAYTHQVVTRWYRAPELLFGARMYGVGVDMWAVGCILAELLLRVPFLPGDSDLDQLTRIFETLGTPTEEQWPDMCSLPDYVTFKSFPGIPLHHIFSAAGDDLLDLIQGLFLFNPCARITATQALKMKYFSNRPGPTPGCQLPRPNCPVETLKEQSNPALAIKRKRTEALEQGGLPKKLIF
Sequence of CDK7/cyclin H/MAT1 complex (P51946 whole entry partner, species assumed): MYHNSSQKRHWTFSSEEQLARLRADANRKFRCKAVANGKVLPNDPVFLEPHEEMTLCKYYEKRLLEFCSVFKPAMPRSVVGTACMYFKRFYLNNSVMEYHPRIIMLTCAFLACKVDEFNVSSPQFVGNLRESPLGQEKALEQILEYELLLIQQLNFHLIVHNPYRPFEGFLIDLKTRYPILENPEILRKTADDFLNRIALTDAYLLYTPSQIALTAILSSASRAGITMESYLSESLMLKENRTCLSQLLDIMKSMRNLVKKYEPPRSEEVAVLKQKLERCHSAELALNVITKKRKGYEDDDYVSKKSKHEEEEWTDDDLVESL
Sequence of CDK7/cyclin H/MAT1 complex (P51948 whole entry partner, species assumed): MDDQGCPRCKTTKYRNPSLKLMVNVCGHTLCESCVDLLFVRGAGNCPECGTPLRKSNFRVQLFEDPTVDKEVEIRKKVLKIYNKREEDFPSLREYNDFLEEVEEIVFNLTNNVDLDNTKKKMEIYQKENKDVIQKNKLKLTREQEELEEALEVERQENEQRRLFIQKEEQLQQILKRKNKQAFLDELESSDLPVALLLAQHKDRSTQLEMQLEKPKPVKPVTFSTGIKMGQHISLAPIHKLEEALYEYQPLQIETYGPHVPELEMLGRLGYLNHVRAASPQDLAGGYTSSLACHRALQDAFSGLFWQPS

CDK2/cyclin E1 complex = CDK2/cyclin E1 complex (Homo sapiens (Human), UniProt P24941); experiment: In vitro enzymatic inhibitory activity test, CDK2; assay type: biochemical; conditions: Caliper mobility shift, 180 min at 27° C.
CDK9/CyclinT1 = CDK9/CyclinT1 (Homo sapiens (Human), UniProt P50750); experiment: In vitro enzymatic inhibitory activity test, CDK9; assay type: biochemical; conditions: Caliper mobility shift, 180 min at 27° C.
Sequence of CDK9/CyclinT1 (P50750 whole entry, species assumed, the tested form may be a part): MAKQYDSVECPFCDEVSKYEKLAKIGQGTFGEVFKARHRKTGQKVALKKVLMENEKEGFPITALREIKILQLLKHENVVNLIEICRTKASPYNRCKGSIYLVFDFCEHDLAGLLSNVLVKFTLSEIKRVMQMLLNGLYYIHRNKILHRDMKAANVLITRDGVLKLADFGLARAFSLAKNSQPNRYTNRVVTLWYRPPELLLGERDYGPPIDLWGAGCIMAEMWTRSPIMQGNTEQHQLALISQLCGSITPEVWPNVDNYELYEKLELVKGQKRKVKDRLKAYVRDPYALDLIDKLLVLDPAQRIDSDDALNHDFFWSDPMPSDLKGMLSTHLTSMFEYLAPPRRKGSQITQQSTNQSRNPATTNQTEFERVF
Sequence of CDK9/CyclinT1 (O60563 whole entry partner, species assumed, the tested form may be a part): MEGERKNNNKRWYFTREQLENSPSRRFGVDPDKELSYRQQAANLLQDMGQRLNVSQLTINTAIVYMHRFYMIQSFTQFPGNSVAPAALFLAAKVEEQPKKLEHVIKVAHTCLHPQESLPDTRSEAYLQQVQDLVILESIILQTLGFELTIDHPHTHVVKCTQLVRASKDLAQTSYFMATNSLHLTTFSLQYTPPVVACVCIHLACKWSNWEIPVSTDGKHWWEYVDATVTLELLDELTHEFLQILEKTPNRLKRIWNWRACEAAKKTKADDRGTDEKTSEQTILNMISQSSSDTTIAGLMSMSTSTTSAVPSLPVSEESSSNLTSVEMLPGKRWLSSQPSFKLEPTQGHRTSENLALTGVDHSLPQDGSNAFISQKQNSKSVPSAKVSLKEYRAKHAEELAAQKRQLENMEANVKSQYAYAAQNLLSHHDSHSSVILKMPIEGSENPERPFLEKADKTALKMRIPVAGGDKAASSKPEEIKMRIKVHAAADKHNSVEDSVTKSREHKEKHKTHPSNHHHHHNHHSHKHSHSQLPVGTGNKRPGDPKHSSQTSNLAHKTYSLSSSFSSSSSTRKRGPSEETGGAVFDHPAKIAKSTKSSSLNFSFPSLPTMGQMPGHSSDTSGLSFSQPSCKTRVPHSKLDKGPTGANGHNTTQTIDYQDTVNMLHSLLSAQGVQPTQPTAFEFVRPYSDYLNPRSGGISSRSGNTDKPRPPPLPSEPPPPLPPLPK

[2] = target: CDK12(aa686-1082)/cyclin K complex (Homo sapiens (Human), UniProt Q9NYV4); experiment: In vitro enzymatic inhibitory activity test, CDK12; assay type: biochemical; conditions: Caliper mobility shift, 180 min at 27° C.
Sequence of CDK12(aa686-1082)/cyclin K complex (Q9NYV4 686-1082, species assumed): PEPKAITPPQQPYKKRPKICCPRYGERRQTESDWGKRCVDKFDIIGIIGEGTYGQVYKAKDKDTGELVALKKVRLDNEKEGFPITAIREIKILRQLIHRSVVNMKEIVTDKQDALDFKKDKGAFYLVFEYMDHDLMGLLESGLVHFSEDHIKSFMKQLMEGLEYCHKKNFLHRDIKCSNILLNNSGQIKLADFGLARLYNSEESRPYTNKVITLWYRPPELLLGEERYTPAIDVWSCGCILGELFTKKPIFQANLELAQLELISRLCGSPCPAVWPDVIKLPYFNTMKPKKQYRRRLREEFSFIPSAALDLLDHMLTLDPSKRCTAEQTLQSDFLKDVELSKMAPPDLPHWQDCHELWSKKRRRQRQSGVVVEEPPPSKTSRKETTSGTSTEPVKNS
Sequence of CDK12(aa686-1082)/cyclin K complex (O75909 whole entry partner, species assumed, the tested form may be a part): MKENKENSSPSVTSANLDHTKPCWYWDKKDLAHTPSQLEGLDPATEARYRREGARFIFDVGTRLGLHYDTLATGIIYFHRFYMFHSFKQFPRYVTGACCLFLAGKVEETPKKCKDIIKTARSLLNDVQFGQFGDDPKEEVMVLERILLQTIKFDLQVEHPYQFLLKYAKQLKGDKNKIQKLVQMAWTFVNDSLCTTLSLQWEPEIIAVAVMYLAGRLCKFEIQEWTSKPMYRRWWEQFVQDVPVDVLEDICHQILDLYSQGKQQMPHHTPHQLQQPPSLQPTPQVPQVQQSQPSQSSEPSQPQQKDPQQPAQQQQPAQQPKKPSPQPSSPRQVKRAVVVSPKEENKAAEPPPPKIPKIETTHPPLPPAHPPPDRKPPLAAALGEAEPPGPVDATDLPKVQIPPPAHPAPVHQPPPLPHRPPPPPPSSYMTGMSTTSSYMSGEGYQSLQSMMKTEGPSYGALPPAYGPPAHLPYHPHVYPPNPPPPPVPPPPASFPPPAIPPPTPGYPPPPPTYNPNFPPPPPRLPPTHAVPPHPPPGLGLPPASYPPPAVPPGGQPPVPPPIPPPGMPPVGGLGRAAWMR

HCC70 cells = experiment: Cell bioactivity detection (CyQuant), HCC70; assay type: cell-based; conditions: human breast cancer cells HCC70, 72 hours
Procedure, shortened: (§1)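 A2780 or HCC70 cells (2000/well, RPMI 1640 + 10% FBS) were seeded overnight, then treated for 72 h at 37° C, 5% CO2 with compound: top 10 μM, 1:4 dilutions, 9 points, 0.2% DMSO. Viable cell number was measured by CyQuant Direct nucleic-acid staining (≥60 min, 37° C) on an Acumen reader at 488 nm excitation, and IC50 was calculated.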

A2780 cells = experiment: Cell bioactivity detection (CyQuant), A2780; assay type: cell-based, human; conditions: ovarian carcinoma cells A2780, 72 hours
Procedure, shortened: as §1

| Compound | pIC50 [1] | pIC50 (CDK2/cyclin E1 complex) | pIC50 (CDK9/CyclinT1) | pIC50 [2] | pIC50 (A2780 cells; Homo sapiens, A2780, 72 h) | pIC50 (A2780 cells) | pIC50 (HCC70 cells; Homo sapiens, HCC70, 72 h) | pIC50 (HCC70 cells) |
| --- | --- | --- | --- | --- | --- | --- | --- | --- |
| FC(F)(F)c1cnc(N[C@H]2CCCNC2)nc1-c1c[nH]c2nc(C3CCOC3)ccc12 (stereo partly drawn) [Compound 29, N—((S)-piperidin-3-yl)-4-(6-(tetrahydrofuran-3-yl)-1H-pyrrol[2,3-b]pyridin-3-yl)-5-(trifluoromethyl)pyrimidine-2-amine formate] | 8.15 | 5.90 | 5.61 | 6.07 | 8.68 |  | 8.51 |  |
| FC(F)(F)c1cnc(N[C@H]2CCCNC2)nc1-c1c[nH]c2nc(N3CC4(CCCOC4)C3)ccc12 [Compound 17, (S)-4-(6-(6-oxa-2-azaspiro[3.5]nonan-2-yl)-1H-pyrrolo[2,3-b]pyridin-3-yl)-N-(piperidin-3-yl)-5-(trifluoromethyl)pyrimidine-2-amine] | 7.70 | 5.26 | 5.37 | 5.79 | 6.67 |  | 6.99 |  |
| FC(F)(F)c1cnc(N[C@H]2CCCNC2)nc1-c1c[nH]c2nc(N3CCCC4(CCOC4)C3)ccc12 (stereo partly drawn) [Compound 7, 4-(6-(2-oxa-7-azaspiro[4.5]decan-7-yl)-1H-pyrrolo[2,3-b]pyridin-3-yl)-N—((S)-piperidin-3-yl)-5-(trifluoromethyl)pyrimidine-2-amine] | 7.62 | 5.35 | 5.49 | 5.69 | 7.66 |  | 7.55 |  |
| CC1COCCC1c1ccc2c(-c3nc(N[C@H]4CCCNC4)ncc3C(F)(F)F)c[nH]c2n1 (stereo partly drawn) [Compound 110, 4-(6-(3-methyltetrahydropyran-4-yl)-1H-pyrrol[2,3-b]pyridin-3-yl)-N—((S)-piperidin-3-yl)-5-(trifluoromethyl)pyrimidine-2-amine formate] | 8.46 | 5.66 | 5.37 | 5.79 | 7.41 |  | 7.41 |  |
| FC(F)(F)c1cnc(N[C@H]2CCCNC2)nc1-c1c[nH]c2nc(N3CC4(COC4)C3)ccc12 [Compound 14, (S)-4-(6-(2-oxa-6-azaspiro[3.3]heptan-6-yl)-1H-pyrrolo[2,3-b]pyridin-3-yl)-N-(piperidin-3-yl)-5-(trifluoromethyl)pyrimidine-2-amine] | 8.15 | 5.48 | 5.78 | 6.26 | 7.96 |  | 7.62 |  |
| FC(F)(F)c1cnc(N[C@@H]2CN3CCC2CC3)nc1-c1c[nH]c2nc(N3CCOCC3)ccc12 [Compound 44, (S)—N-(4-(6-morpholinyl-1H-pyrrol[2,3-b]pyridin-3-yl)-5-(trifluoromethyl)pyrimidin-2-yl)quinine-3-amine formate] | 6.88 | < 5.00 | 5.44 | 5.35 | 6.60 |  | 6.16 |  |
| FC(F)(F)c1cnc(N[C@H]2CCCNC2)nc1-c1c[nH]c2nc(C3CCOC3)ccc12 (single isomer, unassigned) [Compound 108] | 8.36 | 6.02 | 5.85 | 6.29 |  | 8.41 |  | 8.42 |
| FC(F)(F)c1cnc(N[C@H]2CCCNC2)nc1-c1c[nH]c2nc(N3C[C@@H]4C[C@H]3CO4)ccc12 [Compound 13, 4-(6-((1S,4S)-2-oxa-5-azabicyclo[2.2.1]heptan-5-yl)-1H-pyrrolo[2,3-b]pyridin-3-yl)-N—((S)-piperidin-3-yl)-5-(trifluoromethyl)pyrimidine-2-amine] | 8.15 | 5.57 | 5.46 | 5.58 | 7.45 |  | 7.54 |  |
| OCC1CCN(c2ccc3c(-c4nc(N[C@H]5CCCNC5)ncc4C(F)(F)F)c[nH]c3n2)CC1 [Compound 4] | 7.76 | 5.83 | 6.17 | 6.13 | 8.10 |  | 8.21 |  |
| CP(C)(=O)c1ccc2c(-c3nc(N[C@H]4CCCNC4)ncc3C(F)(F)F)c[nH]c2n1 [Compound 114, (S)-dimethyl(3-(2-(piperidine-3-amino)-5-(trifluoromethyl)pyrimidin-4-yl)-1H-pyrrolo[2,3-b]pyridin-6-yl)phosphine oxide formate] | 8.17 | 5.76 | 5.61 | 5.92 | 7.75 |  | 7.74 |  |
| FC(F)(F)c1cnc(N[C@H]2CCCNC2)nc1-c1c[nH]c2nc(N3CCC4(CCOC4)CC3)ccc12 [Compound 9, (S)-4-(6-(2-oxa-8-azaspiro[4.5]decan-8-yl)-1H-pyrrolo[2,3-b]pyridin-3-yl)-N-(piperidin-3-yl)-5-(trifluoromethyl)pyrimidine-2-amine] | 7.54 | 5.14 | 5.34 | 5.90 | 7.44 |  | 7.36 |  |
| FC(F)(F)c1cnc(N[C@H]2CCCNC2)nc1-c1c[nH]c2nc(N3CC4CC(C3)O4)ccc12 [Compound 34, 4-(6-(6-oxo-3-azabicyclo[3.1.1]heptan-3-yl)-1H-pyrrol[2,3-b]pyridin-3-yl)-N—((S)-piperidin-3-yl)-5-(trifluoromethyl)pyrimidine-2-amine] | 7.40 | 5.90 | 5.78 | 5.96 | 8.48 |  | 7.82 |  |
| FC(F)(F)c1cnc(N[C@H]2CCCNC2)nc1-c1c[nH]c2nc(N3CCCC4(CCOCC4)C3)ccc12 [Compound 10, (S)-4-(6-(9-oxa-2-azaspiro[5.5]undecan-2-yl)-1H-pyrrolo[2,3-b]pyridin-3-yl)-N-(piperidin-3-yl)-5-(trifluoromethyl)pyrimidine-2-amine] | 7.57 | 5.68 | 5.40 | 6.08 | 6.96 |  | 6.99 |  |

Continued, in another order:

| pIC50 [1] | pIC50 (CDK2/cyclin E1 complex) | pIC50 (CDK9/CyclinT1) | pIC50 [2] | pIC50 (A2780 cells; Homo sapiens, A2780, 72 h) | pIC50 (A2780 cells) | Compound | pIC50 (HCC70 cells; Homo sapiens, HCC70, 72 h) | pIC50 (HCC70 cells) |
| --- | --- | --- | --- | --- | --- | --- | --- | --- |
| 8.07 | 5.62 | 5.23 | 5.48 | 8.13 |  | C[C@H]1COCCN1c1nc2[nH]cc(-c3nc(N[C@H]4CCCNC4)ncc3C(F)(F)F)c2cc1F [Compound 75, 4-(5-fluoro-6-((S)-3-methylmorpholinyl)-1H-pyrrol[2,3-b]pyridin-3-yl)-N—((S)-piperidin-3-yl)-5-(trifluoromethyl)pyrimidine-2-amine formate] | 8.04 |  |
| 8.15 | 5.52 | 5.54 | 6.11 | 8.33 |  | FC(F)(F)c1cnc(N[C@H]2CCCNC2)nc1-c1c[nH]c2nc(N3CCCOCC3)ccc12 [Compound 22, (S)-4-(6-(1,4-oxazepan-4-yl)-1H-pyrrolo[2,3-b]pyridin-3-yl)-N-(piperidin-3-yl)-5-(trifluoromethyl)pyrimidine-2-amine] | 7.97 |  |
| 6.80 | < 5.00 | < 5.00 | 5.06 | 6.73 |  | C[C@@H]1COCCN1c1ccc2c(-c3nc(N[C@H]4CCCNC4)ncc3C(F)(F)F)c[nH]c2n1 [Compound 19, 4-(6-((R)-3-methylmorpholinyl)-1H-pyrrolo[2,3-b]pyridin-3-yl)-N—((S)-piperidin-3-yl)-5-(trifluoromethyl)pyrimidine-2-amine] | 6.66 |  |
| 7.98 | 5.36 | 5.99 | 5.74 | 7.80 |  | FC(F)(F)c1cnc(N[C@H]2CCCNC2)nc1-c1c[nH]c2nc(N3C[C@H]4C[C@@H]3CO4)ccc12 [Compound 2, 4-(6-((1R,4R)-2-oxa-5-azabicyclo[2.2.1]heptan-5-yl)-1H-pyrrolo[2,3-b]pyridin-3-yl)-N—((S)-piperidin-3-yl)-5-(trifluoromethyl)pyrimidine-2-amine] | 7.82 |  |
| 7.94 | 5.37 | 5.48 | 5.47 |  | 8.21 | C[C@H]1COCCN1c1ccc2c(-c3nc(N[C@@H]4CNC[C@@H](F)C4)ncc3C(F)(F)F)c[nH]c2n1 [Compound 73, N-((3S,5S)-5-fluoropyridin-3-yl)-4-(6-((S)-3-methylmorpholinyl)-1H-pyrrol[2,3-b]pyridin-3-yl)-5-(trifluoromethyl)pyrimidine-2-amine] |  | 7.46 |
| 8.02 | 5.18 | 5.54 | 5.64 | 8.14 |  | C[C@H]1COCCN1c1ccc2c(-c3nc(N[C@H]4CCCNC4)ncc3C(F)(F)F)c[nH]c2n1 [Compound 18, 4-(6-((S)-3-methylmorpholinyl)-1H-pyrrolo[2,3-b]pyridin-3-yl)-N—((S)-piperidin-3-yl)-5-(trifluoromethyl)pyrimidine-2-amine] | 8.17 |  |
| 7.75 | 5.47 | 5.74 | 5.59 |  | 8.55 | C[C@H]1CNC[C@@H](Nc2ncc(C(F)(F)F)c(-c3c[nH]c4nc(N5CCOC[C@@H]5C)ccc34)n2)C1 [Compound 72, 4-(6-((S)-3-methylmorpholinyl)-1H-pyrrol[2,3-b]pyridin-3-yl)-N-((3S,5R)-5-methylpiperidin-3-yl)-5-(trifluoromethyl)pyrimidine-2-amine] |  | 7.68 |
